# US5010093A, “Nitric ester derivative” (Fujisawa Pharmaceutical Co., Ltd., priority 1987, dated 1991)
# Key:
# [1] = tested on: Normotensive Rats; test: Effect on Normotensive Rats (duration of hypotensive effect after oral dosing); assay type: in vivo; conditions: 10 mg/kg, normotensive male S.D. rats fasted about 18 hours
# Description: 7 to 9-week-old male S.D. rats with mean arterial blood pressure of 100-125 mmHg, weighing 245-375 g, were used. The animals were cannulated in the left femoral artery and the mean blood pressure and heart rate were measured with a pressure-transducer. The drugs were given orally. The animals were deprived of food for about 18 hours before oral dosing. The test drugs were dissolved in saline or ethanol, and given in oral doses of 10 mg/kg. The duration of half the maximum hypotensive effect was calculated as T 1/2. Compound 1 ,and Compound A.
# [2] = tested on: Isolated Rat Aorta; test: Effect on Isolated Rat Aorta (relaxation of norepinephrine-contracted aortic strips); conditions: aortic spiral strips, norepinephrine 3.2 ×10^-8 M tonus, 37° C., effect of papaverine 10^-4 M=100%, read-out: ED50 value
# Description: The aortas were removed from rats. Spiral strips approximately 10 mm in length were cut from the aorta, and suspended in an organ bath containing Tyrode's solution at 37° C., aerated with a gas mixture of 95% oxygen and 5% carbon dioxide. The tonus of the strips was recorded on a polygraph with a force-displacement transducer. After the initial resting tension was adjusted to 0.5 g, norepinephrine 3.2 ×10^-8 M was added to the organ bath to increase the tonus of the aortic strips to 0.9-1.1 g.
# The cumulative concentrations of the test compound were then added, and finally papaverine 10^-4 M was given to determine maximum relaxation. ED50 values were calculated by interpolation from the mean cumulative dose-activity curves (effect of papaverine 10^-4 M=100%).
# N-(2-Nitrooxyethyl)-2-methyl-4-thiazolecarboxamide hydrochloride (hereinafter referred to as Compound .circle.1 ), and N-(2-Nitrooxyethyl)-3-pyridinecarboxamide (Reference Compound A) (hereinafter referred to as Compound A).
SMILES,T 1/2 (duration of half the maximum hypotensive effect) [1] [h],EC50 [2] [µg/mL]
Cc1nc(C(=O)NCCO[N+](=O)[O-])cs1 [.circle.1],1.67,0.091
"O=C(NCCO[N+](=O)[O-])c1cccnc1 [Compound A, N-(2-Nitrooxyethyl)-3-pyridinecarboxamide]",0.833,0.94
